# Experimental data as given in PMC11249646, “Small-Molecule Disruptors of the Interaction between Calcium- and Integrin-Binding Protein 1 and Integrin αIIbβ3 as Novel Antiplatelet Agents” (ACS Pharmacology & Translational Science, 2024).
# Target: T1, CIB1 and αIIb interaction (GST-CIB1 : F-αIIb peptide) (Homo sapiens, UniProt Q99828)
# T1 construct: made in house; host or cells: BL-21 plus RIL cells (E. coli)
# T1 sequence (Q99828 1-191): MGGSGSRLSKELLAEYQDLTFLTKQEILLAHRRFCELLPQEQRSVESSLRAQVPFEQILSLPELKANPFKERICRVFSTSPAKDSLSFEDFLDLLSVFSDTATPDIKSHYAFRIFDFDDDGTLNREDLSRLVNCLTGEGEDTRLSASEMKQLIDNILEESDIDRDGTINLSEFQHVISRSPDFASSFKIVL
# Assay: FP assay, 384-well format (screen)
# Type: binding
# Set-up: 384-well SCREEN Efficacy (%): concentration or dose not given beside the values
# Settings: F-αIIb peptide
row,384-well SCREEN Efficacy (%),Structure (SMILES)
1,31,CCc1oc2ccccc2c1C(=O)c1cc(I)c(O)c(I)c1 [NCGC00160408-03]
2,69,CCCCCCCCOc1ccccc1C(=O)Nc1ccc(C(=O)OCC[N+](C)(CC)CC)cc1.[Br-] [NCGC00163507-02]

row,Structure (SMILES),384-well SCREEN Efficacy (%)
1,COc1nn(CSP(=S)(OC)OC)c(=O)s1 [NCGC00163724-03],80

# Same assay, conditions: F-αIIb peptide; YES/NO
row,Structure (SMILES),384-well SCREEN Confirm?
1,CCCCCCCCOc1ccccc1C(=O)Nc1ccc(C(=O)OCC[N+](C)(CC)CC)cc1.[Br-] [NCGC00163507-02],YES
2,COc1nn(CSP(=S)(OC)OC)c(=O)s1 [NCGC00163724-03],YES

# Same assay, conditions: F-αIIb peptide; read-out: 384-well SCREEN IC50
row,IC50 [µM],Structure (SMILES)
1,> 120,CCc1oc2ccccc2c1C(=O)c1cc(I)c(O)c(I)c1 [NCGC00160408-03]
2,12.6,CCCCCCCCOc1ccccc1C(=O)Nc1ccc(C(=O)OCC[N+](C)(CC)CC)cc1.[Br-] [NCGC00163507-02]

row,Structure (SMILES),IC50 [µM]
1,COc1nn(CSP(=S)(OC)OC)c(=O)s1 [NCGC00163724-03],15.8

# Target: T2, GST-CIB1 : F-scrambled peptide (Homo sapiens, UniProt Q99828)
# T2 construct: made in house; host or cells: BL-21 plus RIL cells (E. coli)
# T2 sequence (Q99828 1-191): T1 sequence (Q99828 1-191)
# Assay: FP scrambled-peptide counter screen, 384-well format
# Type: binding
# Settings: F-scrambled peptide
row,384-well COUNTERSCREEN Efficacy (%),Structure (SMILES)
1,173,CCc1oc2ccccc2c1C(=O)c1cc(I)c(O)c(I)c1 [NCGC00160408-03]
2,39,CCCCCCCCOc1ccccc1C(=O)Nc1ccc(C(=O)OCC[N+](C)(CC)CC)cc1.[Br-] [NCGC00163507-02]

row,Structure (SMILES),384-well COUNTERSCREEN Efficacy (%)
1,COc1nn(CSP(=S)(OC)OC)c(=O)s1 [NCGC00163724-03],60

# Same assay, conditions: F-scrambled peptide; *: Curve in opposite direction
row,Structure (SMILES),384-well COUNTERSCREEN Confirm?
1,CCCCCCCCOc1ccccc1C(=O)Nc1ccc(C(=O)OCC[N+](C)(CC)CC)cc1.[Br-] [NCGC00163507-02],YES
2,COc1nn(CSP(=S)(OC)OC)c(=O)s1 [NCGC00163724-03],YES

# Same assay, conditions: F-scrambled peptide; read-out: 384-well COUNTERSCREEN IC50
row,IC50 [µM],Structure (SMILES)
1,10,CCc1oc2ccccc2c1C(=O)c1cc(I)c(O)c(I)c1 [NCGC00160408-03]
2,> 120,CCCCCCCCOc1ccccc1C(=O)Nc1ccc(C(=O)OCC[N+](C)(CC)CC)cc1.[Br-] [NCGC00163507-02]

row,Structure (SMILES),IC50 [µM]
1,COc1nn(CSP(=S)(OC)OC)c(=O)s1 [NCGC00163724-03],> 120

# Target: T3, CIB1 and αIIb interaction (CIB1-GST : F-αIIb peptide) (Homo sapiens, UniProt Q99828)
# T3 construct: made in house; host or cells: BL-21 plus RIL cells (E. coli)
# T3 sequence (Q99828 1-191): T1 sequence (Q99828 1-191)
# Assay: FP assay, 1536-well qHTS format (primary and confirmatory screen)
# Type: binding
# Settings: confirmatory screen, YES/NO call
row,CONFIRMATORY SCREEN Confirm?,Structure (SMILES)
1,YES,CCc1oc2ccccc2c1C(=O)c1cc(I)c(O)c(I)c1 [NCGC00160408-03]
2,YES,CCCCCCCCOc1ccccc1C(=O)Nc1ccc(C(=O)OCC[N+](C)(CC)CC)cc1.[Br-] [NCGC00163507-02]

row,Structure (SMILES),CONFIRMATORY SCREEN Confirm?
1,COc1nn(CSP(=S)(OC)OC)c(=O)s1 [NCGC00163724-03],YES

# Same assay, conditions: confirmatory screen, qHTS curve class; negative sign = inhibitory curve
row,CONFIRMATORY SCREEN Curve Class,Structure (SMILES)
1,-1.2,CCc1oc2ccccc2c1C(=O)c1cc(I)c(O)c(I)c1 [NCGC00160408-03]
2,-3,CCCCCCCCOc1ccccc1C(=O)Nc1ccc(C(=O)OCC[N+](C)(CC)CC)cc1.[Br-] [NCGC00163507-02]

row,Structure (SMILES),CONFIRMATORY SCREEN Curve Class
1,COc1nn(CSP(=S)(OC)OC)c(=O)s1 [NCGC00163724-03],-1.4

# Same assay, conditions: confirmatory screen; negative = inhibition
row,CONFIRMATORY SCREEN Efficacy (%),Structure (SMILES)
1,-75,CCc1oc2ccccc2c1C(=O)c1cc(I)c(O)c(I)c1 [NCGC00160408-03]
2,-60,CCCCCCCCOc1ccccc1C(=O)Nc1ccc(C(=O)OCC[N+](C)(CC)CC)cc1.[Br-] [NCGC00163507-02]

row,Structure (SMILES),CONFIRMATORY SCREEN Efficacy (%)
1,COc1nn(CSP(=S)(OC)OC)c(=O)s1 [NCGC00163724-03],-47

# Same assay, conditions: confirmatory screen; read-out: CONFIRMATORY SCREEN IC50
row,IC50 [µM],Structure (SMILES)
1,11.2,CCc1oc2ccccc2c1C(=O)c1cc(I)c(O)c(I)c1 [NCGC00160408-03]
2,39.8,CCCCCCCCOc1ccccc1C(=O)Nc1ccc(C(=O)OCC[N+](C)(CC)CC)cc1.[Br-] [NCGC00163507-02]

row,Structure (SMILES),IC50 [µM]
1,COc1nn(CSP(=S)(OC)OC)c(=O)s1 [NCGC00163724-03],20

# Same assay, conditions: qHTS FP screen hits, Table S2; negative = inhibition
row,Efficacy (%),Structure (SMILES)
1,-52,CCc1oc2ccccc2c1C(=O)c1cc(I)c(O)c(I)c1 [NCGC00160408-03]

# Same assay, conditions: qHTS FP screen hits, Table S2; one class per curve where COUNT > 1; negative sign = inhibitory curve
row,Curve Class,Structure (SMILES)
1,-2.2,CCc1oc2ccccc2c1C(=O)c1cc(I)c(O)c(I)c1 [NCGC00160408-03]

# Same assay, conditions: qHTS FP screen hits, Table S2; read-out: IC50
row,IC50 [µM],Structure (SMILES)
1,39.8,CCc1oc2ccccc2c1C(=O)c1cc(I)c(O)c(I)c1 [NCGC00160408-03]

# Same assay, conditions: qHTS primary screen hits, Table S2; negative = inhibition
row,Structure (SMILES),Efficacy (%)
1,COc1nn(CSP(=S)(OC)OC)c(=O)s1 [NCGC00163724-03],-47

# Same assay, conditions: qHTS primary screen hits, Table S2; negative sign = inhibitory curve; several classes where COUNT > 1
row,Structure (SMILES),Curve Class
1,COc1nn(CSP(=S)(OC)OC)c(=O)s1 [NCGC00163724-03],-1.2

# Same assay, conditions: qHTS primary screen hits, Table S2; read-out: IC50
row,Structure (SMILES),IC50 [µM]
1,COc1nn(CSP(=S)(OC)OC)c(=O)s1 [NCGC00163724-03],58.6

# Target: T2, GST-CIB1 : F-scrambled peptide
# Assay: FP scrambled-peptide counter screen, 1536-well format
# Type: binding
# Settings: scrambled-peptide counterscreen
row,COUNTERSCREEN Efficacy (%),Structure (SMILES)
1,20,CCc1oc2ccccc2c1C(=O)c1cc(I)c(O)c(I)c1 [NCGC00160408-03]
2,0,CCCCCCCCOc1ccccc1C(=O)Nc1ccc(C(=O)OCC[N+](C)(CC)CC)cc1.[Br-] [NCGC00163507-02]

row,Structure (SMILES),COUNTERSCREEN Efficacy (%)
1,COc1nn(CSP(=S)(OC)OC)c(=O)s1 [NCGC00163724-03],0

# Same assay, conditions: scrambled-peptide counterscreen, YES/NO call
row,COUNTERSCREEN Confirm?,Structure (SMILES)
1,YES,CCc1oc2ccccc2c1C(=O)c1cc(I)c(O)c(I)c1 [NCGC00160408-03]
2,YES,CCCCCCCCOc1ccccc1C(=O)Nc1ccc(C(=O)OCC[N+](C)(CC)CC)cc1.[Br-] [NCGC00163507-02]

row,Structure (SMILES),COUNTERSCREEN Confirm?
1,COc1nn(CSP(=S)(OC)OC)c(=O)s1 [NCGC00163724-03],YES

# Same assay, conditions: scrambled-peptide counterscreen, qHTS curve class
row,COUNTERSCREEN Curve Class,Structure (SMILES)
1,1.4,CCc1oc2ccccc2c1C(=O)c1cc(I)c(O)c(I)c1 [NCGC00160408-03]
2,4,CCCCCCCCOc1ccccc1C(=O)Nc1ccc(C(=O)OCC[N+](C)(CC)CC)cc1.[Br-] [NCGC00163507-02]

row,Structure (SMILES),COUNTERSCREEN Curve Class
1,COc1nn(CSP(=S)(OC)OC)c(=O)s1 [NCGC00163724-03],4

# Same assay, conditions: scrambled-peptide counterscreen; read-out: COUNTERSCREEN IC50
row,IC50 [µM],Structure (SMILES)
1,11.2,CCc1oc2ccccc2c1C(=O)c1cc(I)c(O)c(I)c1 [NCGC00160408-03]
